Test results reported in the supplement of paper PMC10733146.

Assays:
Test in all cases: viability relative to DMSO control (fraction); higher = less drug effect (more viable cells)
Details in all cases: 48 h
[1] = test system: primary AML patient cells (S056)
Outline: (§1)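 Cells were incubated for 48 h at 37 °C and 5% CO2 in RPMI-1640 with penicillin/streptomycin, L-glutamine and human serum, at 4 × 10^4 cells per well in 384-well plates with compounds pre-plated at five concentrations, one well each. These were primary mononuclear tumour cells, fresh or cryopreserved, Ficoll-isolated from blood or bone marrow or obtained from processed lymph node. Viability values are CellTiter-Glo luminescence relative to the median of 16 inner DMSO wells.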

[2] = test system: primary AML patient cells (S072)
Outline: as §1

[3] = test system: primary AML patient cells (S071)
Outline: as §1

[4] = test system: primary FL patient cells (S087)
Outline: as §1

[5] = test system: primary MCL patient cells (S068)
Outline: as §1

[6] = test system: primary B-PLL patient cells (S016)
Outline: as §1

[7] = test system: primary MCL patient cells (S053)
Outline: as §1

[8] = test system: primary FL patient cells (S022)
Outline: as §1

[9] = test system: primary MCL patient cells (S063)
Outline: as §1

[10] = test system: primary MCL patient cells (S041)
Outline: as §1

[11] = test system: primary AML patient cells (S009)
Outline: as §1

[12] = test system: primary CLL patient cells (S031)
Outline: as §1

[13] = test system: primary ALL patient cells (S048)
Outline: as §1

[14] = test system: primary AML patient cells (S055)
Outline: as §1

[15] = test system: primary T-PLL patient cells (S008)
Outline: as §1

[16] = test system: primary DLBCL patient cells (S082)
Outline: as §1

[17] = test system: primary AML patient cells (S060)
Outline: as §1

[18] = test system: primary ALL patient cells (S088)
Outline: as §1

[19] = test system: primary AML patient cells (S079)
Outline: as §1

[20] = test system: primary BL patient cells (S005)
Outline: as §1

## CCc1nc(C(N)=O)c(Nc2ccc(N3CCC(N4CCN(C)CC4)CC3)c(OC)c2)nc1NC1CCOCC1 [Gilteritinib]
[1]; 0.024 µM
  viability: 0.404
[1]; 0.12 µM
  viability: 0.385
[1]; 0.6 µM
  viability: 0.339
[1]; 3 µM
  viability: 0.497
[1]; 15 µM
  viability: 0.644
[2]; 0.024 µM
  viability: 0.983
[2]; 0.12 µM
  viability: 0.882
[2]; 0.6 µM
  viability: 0.54
[2]; 3 µM
  viability: 0.368
[2]; 15 µM
  viability: 0.285
[3]; 0.024 µM
  viability: 0.564
[3]; 0.12 µM
  viability: 0.457
[3]; 0.6 µM
  viability: 0.465
[3]; 3 µM
  viability: 0.551
[3]; 15 µM
  viability: 0.878
[4]; 0.024 µM
  viability: 1.09
[4]; 0.12 µM
  viability: 1.06
[4]; 0.6 µM
  viability: 0.865
[4]; 3 µM
  viability: 0.807
[4]; 15 µM
  viability: 0.422
[5]; 0.024 µM
  viability: 1.63
[5]; 0.12 µM
  viability: 2
[5]; 0.6 µM
  viability: 1.89
[5]; 3 µM
  viability: 1.27
[5]; 15 µM
  viability: 0.689
[6]; 0.024 µM
  viability: 0.818
[6]; 0.12 µM
  viability: 0.819
[6]; 0.6 µM
  viability: 0.875
[6]; 3 µM
  viability: 0.911
[6]; 15 µM
  viability: 0.654
[7]; 0.024 µM
  viability: 1.07
[7]; 0.12 µM
  viability: 1.02
[7]; 0.6 µM
  viability: 0.7
[7]; 3 µM
  viability: 0.707
[7]; 15 µM
  viability: 0.733
[8]; 0.024 µM
  viability: 1.01
[8]; 0.12 µM
  viability: 0.925
[8]; 0.6 µM
  viability: 0.907
[8]; 3 µM
  viability: 0.789
[8]; 15 µM
  viability: 0.358
[9]; 0.024 µM
  viability: 1.11
[9]; 0.12 µM
  viability: 1.13
[9]; 0.6 µM
  viability: 0.706
[9]; 3 µM
  viability: 0.42
[9]; 15 µM
  viability: 0.209
[10]; 0.024 µM
  viability: 0.934
[10]; 0.12 µM
  viability: 0.882
[10]; 0.6 µM
  viability: 0.705
[10]; 3 µM
  viability: 0.647
[10]; 15 µM
  viability: 0.406
[11]; 0.024 µM
  viability: 0.945
[11]; 0.12 µM
  viability: 0.865
[11]; 0.6 µM
  viability: 0.9
[11]; 3 µM
  viability: 0.675
[11]; 15 µM
  viability: 0.986
[12]; 0.024 µM
  viability: 1.13
[12]; 0.12 µM
  viability: 1
[12]; 0.6 µM
  viability: 0.785
[12]; 3 µM
  viability: 0.791
[12]; 15 µM
  viability: 0.188
[13]; 0.024 µM
  viability: 0.876
[13]; 0.12 µM
  viability: 0.819
[13]; 0.6 µM
  viability: 0.646
[13]; 3 µM
  viability: 0.717
[13]; 15 µM
  viability: 0.531
[14]; 0.024 µM
  viability: 1.04
[14]; 0.12 µM
  viability: 1.03
[14]; 0.6 µM
  viability: 0.573
[14]; 3 µM
  viability: 0.638
[14]; 15 µM
  viability: 0.821
[15]; 0.024 µM
  viability: 0.952
[15]; 0.12 µM
  viability: 0.909
[15]; 0.6 µM
  viability: 0.886
[15]; 3 µM
  viability: 0.787
[15]; 15 µM
  viability: 0.935
[16]; 0.024 µM
  viability: 1.14
[16]; 0.12 µM
  viability: 0.761
[16]; 0.6 µM
  viability: 0.409
[16]; 3 µM
  viability: 0.459
[16]; 15 µM
  viability: 0.476
[17]; 0.024 µM
  viability: 1
[17]; 0.12 µM
  viability: 1.06
[17]; 0.6 µM
  viability: 0.965
[17]; 3 µM
  viability: 0.663
[17]; 15 µM
  viability: 0.428
[18]; 0.024 µM
  viability: 0.698
[18]; 0.12 µM
  viability: 0.545
[18]; 0.6 µM
  viability: 0.388
[18]; 3 µM
  viability: 0.414
[18]; 15 µM
  viability: 0.131
[19]; 0.024 µM
  viability: 1.26
[19]; 0.12 µM
  viability: 0.887
[19]; 0.6 µM
  viability: 0.735
[19]; 3 µM
  viability: 0.626
[19]; 15 µM
  viability: 0.469
[20]; 0.024 µM
  viability: 0.957
[20]; 0.12 µM
  viability: 0.96
[20]; 0.6 µM
  viability: 0.739
[20]; 3 µM
  viability: 0.667
[20]; 15 µM
  viability: 0.536
